PMC11502502 (Nature cancer, 2024)
Where “and” joins values, the source holds several entries; their conditions need not be identical. Equal values may be shown once. Read-outs that look alike come from different tables or passages of the source.

Experiments:
SNU398 = assay: CellTiter-Glo cell viability, SNU398; format: cell-based; conditions: Homo sapiens, SNU-398, 72 h
[1] = Protein-binding assay with equilibrium dialysis in cell culture medium; format: in vitro ADME; conditions: bovine, cell culture medium with 10% fetal calf serum
OPM-2 = assay: CellTiter-Glo cell viability, OPM-2; format: cell-based; conditions: Homo sapiens, OPM-2, 72 h
SNU-16 = assay: CellTiter-Glo cell viability, SNU-16; format: cell-based; conditions: Homo sapiens, SNU-16, 72 h
PA-1 = assay: CellTiter-Glo cell viability, PA-1; format: cell-based; conditions: Homo sapiens, PA-1, 72 h
SU-DHL-10 = assay: CellTiter-Glo cell viability, SU-DHL-10; format: cell-based; conditions: Homo sapiens, SU-DHL10, 72 h
HCC-2157 = assay: CellTiter-Glo cell viability, HCC-2157; format: cell-based; conditions: Homo sapiens, HCC2157, 72 h
MOLP-8 = assay: CellTiter-Glo cell viability, MOLP-8; format: cell-based; conditions: Homo sapiens, MOLP-8, 72 h
JJN-3 = assay: CellTiter-Glo cell viability, JJN-3; format: cell-based; conditions: Homo sapiens, JJN-3, 72 h
KMS-12-PE = assay: CellTiter-Glo cell viability, KMS-12-PE; format: cell-based; conditions: Homo sapiens, 72 h
A-431 = assay: CellTiter-Glo cell viability, A-431; format: cell-based; conditions: Homo sapiens, A-431, 72 h
A-427 = assay: CellTiter-Glo cell viability, A-427; format: cell-based; conditions: Homo sapiens, A-427, 72 h
SU-DHL-5 = assay: CellTiter-Glo cell viability, SU-DHL-5; format: cell-based; conditions: Homo sapiens, SU-DHL-5, 72 h
NCI-H82 = assay: CellTiter-Glo cell viability, NCI-H82; format: cell-based; conditions: Homo sapiens, NCI-H82, 72 h
HMC1–8 = assay: CellTiter-Glo cell viability, HMC1–8; format: cell-based; conditions: Homo sapiens, 72 h
AMO-1 = assay: CellTiter-Glo cell viability, AMO-1; format: cell-based; conditions: Homo sapiens, AMO1, 72 h
KMS-12-BM = assay: CellTiter-Glo cell viability, KMS-12-BM; format: cell-based; conditions: Homo sapiens, 72 h
RPMI 8226 = assay: CellTiter-Glo cell viability, RPMI 8226; format: cell-based; conditions: Homo sapiens, RPMI-8226, 72 h
DMS114 = assay: CellTiter-Glo cell viability, DMS114; format: cell-based; conditions: Homo sapiens, DMS-114, 72 h
HCC-1187 = assay: CellTiter-Glo cell viability, HCC-1187; format: cell-based; conditions: Homo sapiens, HCC1187, 72 h
SNU398 (HCC) xenografts = assay: SNU398 liver cancer xenograft efficacy; format: in vivo; conditions: SNU-398 (HCC) tumor bearing mice, Regorafinib 30 mg/kg qd po, one value per animal
[2] = test system: hiPS cell-derived cardiomyocytes; assay: hiPS cell-derived cardiomyocytes: cell viability (ATP levels, cell titer glow)
[3] = test system: hiPS cell-derived cardiomyocytes; assay: hiPS cell-derived cardiomyocytes: extracellular troponin I (AlphaLISA); format: cell-based, human
[4] = test system: hiPS cell-derived cardiomyocytes; assay: hiPS cell-derived cardiomyocytes: activation of caspases 3 and 7; format: cell-based, human; conditions: 1 μM, 72 h
[5] = test system: hiPS cell-derived cardiomyocytes; assay: hiPS cell-derived cardiomyocytes: DAPI-stained number of nuclei; format: cell-based, human
[6] = test system: hiPS cell-derived cardiomyocytes; assay: hiPS cell-derived cardiomyocytes: extracellular LDH; format: cell-based, human; conditions: 1 μM, 72 h
[7] = read-out: Anti-proliferative IC50
[8] = read-out: Antiproliferative IC50u

Compound `CO[C@H]1/C=C/C[C@H](C)[C@@H](C)S(=O)(=O)NC(=O)c2ccc3c(c2)N(C[C@@H]2CC[C@H]21)C[C@@]1(CCCc2cc(Cl)ccc21)CO3` [AMG176] has an IC50 (SNU398; [7]) of 495 nM, an IC50 (SNU398; [8]) of 5.1 nM and a fraction unbound [1] of 0.01. For the same compound, the IC50 (OPM-2; [7]) was 117 nM, the IC50 (OPM-2; [8]) was 1.2 nM and the IC50 (SNU-16; [7]) was 583 nM. It also gave an IC50 (SNU-16; [8]) of 6 nM, an IC50 (PA-1; [7]) of 631 nM and an IC50 (PA-1; [8]) of 6.5 nM. The IC50 (SU-DHL-10; [7]) was 87 nM, the IC50 (SU-DHL-10; [8]) was 0.9 nM and the IC50 (HCC-2157; [7]) was 262 nM. The IC50 (HCC-2157; [8]) was 2.7 nM, the IC50 (MOLP-8; [7]) was 223 nM and the IC50 (MOLP-8; [8]) was 2.3 nM. The IC50 (JJN-3; [7]) was 553 nM, the IC50 (JJN-3; [8]) was 5.7 nM and the IC50 (KMS-12-PE; [7]) was 1160 nM. The IC50 (KMS-12-PE; [8]) was 12 nM, the IC50 (A-431; [7]) was 641 nM and the IC50 (A-431; [8]) was 6.6 nM. It also gave an IC50 (A-427; [7]) of 563 nM, an IC50 (A-427; [8]) of 5.8 nM and an IC50 (SU-DHL-5; [7]) of 117 nM. It also gave an IC50 (SU-DHL-5; [8]) of 1.2 nM, an IC50 (NCI-H82; [7]) of 476 nM and an IC50 (NCI-H82; [8]) of 4.9 nM. For the same compound, the IC50 (HMC1–8; [7]) was 583 nM, the IC50 (HMC1–8; [8]) was 6 nM and the IC50 (AMO-1; [7]) was 126 nM. It also gave an IC50 (AMO-1; [8]) of 1.3 nM, an IC50 (KMS-12-BM; [7]) of 184 nM and an IC50 (KMS-12-BM; [8]) of 1.9 nM. It also gave an IC50 (RPMI 8226; [7]) of 291 nM, an IC50 (RPMI 8226; [8]) of 3 nM and an IC50 (DMS114; [7]) of 282 nM. It also gave an IC50 (DMS114; [8]) of 2.9 nM, an IC50 (HCC-1187; [7]) of 330 nM and an IC50 (HCC-1187; [8]) of 3.4 nM.

For `Cc1c2c(nn1C)CSCc1cc(n(C)n1)CSc1cc(c3ccccc3c1)OCCCc1c(C(=O)O)n(C)c3c-2c(Cl)ccc13` [AZD5991], the IC50 (SNU398; [7]) was 52 nM, the IC50 (SNU398; [8]) was 1.1 nM and the fraction unbound [1] was 0.021. The IC50 (OPM-2; [7]) was 33 nM, the IC50 (OPM-2; [8]) was 0.7 nM and the IC50 (SNU-16; [7]) was 267 nM. The IC50 (SNU-16; [8]) was 5.6 nM, the IC50 (PA-1; [7]) was 105 nM and the IC50 (PA-1; [8]) was 2.2 nM. For the same compound, the IC50 (HCC-2157; [7]) was 95 nM, the IC50 (HCC-2157; [8]) was 2 nM and the IC50 (MOLP-8; [7]) was 38 nM. The IC50 (MOLP-8; [8]) was 0.8 nM, the IC50 (JJN-3; [7]) was 71 nM and the IC50 (JJN-3; [8]) was 1.5 nM. For the same compound, the IC50 (KMS-12-PE; [7]) was 210 nM, the IC50 (KMS-12-PE; [8]) was 4.4 nM and the IC50 (A-431; [7]) was 219 nM. It also gave an IC50 (A-431; [8]) of 4.6 nM, an IC50 (A-427; [7]) of 52 nM and an IC50 (A-427; [8]) of 1.1 nM. For the same compound, the IC50 (SU-DHL-5; [7]) was 14 nM, the IC50 (SU-DHL-5; [8]) was 0.3 nM and the IC50 (NCI-H82; [7]) was 162 nM. It also gave an IC50 (NCI-H82; [8]) of 3.4 nM, an IC50 (HMC1–8; [7]) of 329 nM and an IC50 (HMC1–8; [8]) of 6.9 nM. For the same compound, the IC50 (AMO-1; [7]) was 57 nM, the IC50 (AMO-1; [8]) was 1.2 nM and the IC50 (KMS-12-BM; [7]) was 33 nM. It also gave an IC50 (KMS-12-BM; [8]) of 0.7 nM, an IC50 (RPMI 8226; [7]) of 62 nM and an IC50 (RPMI 8226; [8]) of 1.3 nM. It also gave an IC50 (DMS114; [7]) of 71 nM, an IC50 (DMS114; [8]) of 1.5 nM and an IC50 (HCC-1187; [7]) of 52 nM. The IC50 (HCC-1187; [8]) was 1.1 nM.

With `CNC(=O)c1cc(Oc2ccc(NC(=O)Nc3ccc(Cl)c(C(F)(F)F)c3)c(F)c2)ccn1` [Regorafinib] the “anti-tumor efficacy, individual measurements” value (shortened to “anti-tumor efficacy”) (SNU398 (HCC) xenografts; day 1 post treatment start) was 63.45 and 60.8 and 64.88 and 117.14 and 74.08 and 111.9 and 95.85, the “anti-tumor efficacy” value (SNU398 (HCC) xenografts; day 3 post treatment start) was 72 and 76.25 and 72.91 and 127.45 and 81.33 and 119.22 and 106.01 and the “anti-tumor efficacy” value (SNU398 (HCC) xenografts; day 7 post treatment start) was 83.42 and 75.99 and 78.47 and 145.78 and 87.63 and 117.37. For the same compound, the “anti-tumor efficacy” value (SNU398 (HCC) xenografts; day 8 post treatment start) was 100.66 and 81.04 and 87.14 and 150.75 and 99.27 and 129.84, the “anti-tumor efficacy” value (SNU398 (HCC) xenografts; day 10 post treatment start) was 89.75 and 86.89 and 87.88 and 152.45 and 93.82 and 132.88 and the “anti-tumor efficacy” value (SNU398 (HCC) xenografts; day 13 post treatment start) was 96.32 and 85.08 and 98.92 and 145.11 and 103.54 and 167.23.

With `COc1cccc2c1C(=O)c1c(O)c3c(c(O)c1C2=O)C[C@@](O)(C(=O)CO)C[C@@H]3O[C@H]1C[C@H](N)[C@H](O)[C@H](C)O1` [doxorubicin] the ATP levels ([2]; 1 μM, 72 h) was “reduced ATP levels”, the “Cell viability via cell titer glow” value ([2]; Doxorubicin - wash, 3h) was 0.9604 and 0.941 and 0.9405 and the “Cell viability via cell titer glow” value ([2]; Doxorubicin - wash, 6h) was 0.9905 and 0.9749 and 0.9586. For the same compound, the “Cell viability via cell titer glow” value ([2]; Doxorubicin - wash, 24h) was 0.9393 and 0.938 and 0.976, the “Cell viability via cell titer glow” value ([2]; Doxorubicin - wash, 48h) was 0.6883 and 0.7253 and 0.7219 and the “Cell viability via cell titer glow” value ([2]; Doxorubicin - wash, 72h) was 0.5187 and 0.5467 and 0.5116. The “Cell viability via cell titer glow” value ([2]; Doxorubicin, 3h) was 0.9456 and 0.9453 and 0.963, the “Cell viability via cell titer glow” value ([2]; Doxorubicin, 6h) was 0.9853 and 1.049 and 1.001 and the “Cell viability via cell titer glow” value ([2]; Doxorubicin, 24h) was 0.9003 and 0.8578 and 0.8897. For the same compound, the “Cell viability via cell titer glow” value ([2]; Doxorubicin, 48h) was 0.5823 and 0.6777 and 0.6323, the “Cell viability via cell titer glow” value ([2]; Doxorubicin, 72h) was 0.4355 and 0.3955 and 0.4606 and the “Extracellular troponin I” value ([3]; Doxorubicin - wash, 48h) was 5.76 and 7.195 and 6.893. For the same compound, the “Extracellular troponin I” value ([3]; Doxorubicin - wash, 72h) was 12.7295 and 11.4567 and 13.7321, the “Extracellular troponin I” value ([3]; Doxorubicin, 3h) was 0.7061 and 0.6741 and 0.6927 and the “Extracellular troponin I” value ([3]; Doxorubicin, 6h) was 2.491 and 1.893 and 3.419. The “Extracellular troponin I” value ([3]; Doxorubicin, 48h) was 9.842 and 16.5962 and 13.2372, the “Extracellular troponin I” value ([3]; Doxorubicin, 72h) was 30.5761 and 27.6931 and 29.1909 and the “Caspase 3 activation” value [4] was “time-dependent activation of caspase 3”. For the same compound, the Nuclear counts ([5]; 1 μM, 72 h) was “decreased nuclear counts”, the “DAPI stained number of nuclei” value ([5]; Doxorubicin - wash, 3h) was 0.4105 and 0.3857 and 0.4592 and the “DAPI stained number of nuclei” value ([5]; Doxorubicin - wash, 6h) was 0.9721 and 0.9984 and 0.8453. For the same compound, the “DAPI stained number of nuclei” value ([5]; Doxorubicin - wash, 24h) was 0.5586 and 0.4572 and 0.5102, the “DAPI stained number of nuclei” value ([5]; Doxorubicin - wash, 48h) was 0.8181 and 0.8435 and 0.8812 and the “DAPI stained number of nuclei” value ([5]; Doxorubicin - wash, 72h) was 0.2447 and 0.2247 and 0.2518. For the same compound, the “DAPI stained number of nuclei” value ([5]; Doxorubicin, 3h) was 0.3508 and 0.3671 and 0.4582, the “DAPI stained number of nuclei” value ([5]; Doxorubicin, 6h) was 0.9886 and 0.9511 and 0.985 and the “DAPI stained number of nuclei” value ([5]; Doxorubicin, 24h) was 0.3141 and 0.2601 and 0.2627. For the same compound, the “DAPI stained number of nuclei” value ([5]; Doxorubicin, 48h) was 0.2344 and 0.4107 and 0.4046 and the LDH release [6] was “increased LDH release”.
